{"source": "patent US12440435B2", "about": "“Solubilization of poorly soluble cooling substances” (SYMRISE AG, priority 2018, dated 2025)", "assay": "Dissolving the cooling agent in a solvent with stepwise heating, then cooling to room temperature and observing crystallisation", "type": "physicochemical"}
{"smiles": "COc1ccc(NC(=O)[C@@H]2C[C@H](C)CC[C@H]2C(C)C)cc1", "note": "[(1R,2S,5R)-N-(4-methoxyphenyl)-5-methyl-2-(1-methylethyl)-cyclohexane-carboxamide]", "values": [{"measurement": "amount of cooling agent that can be dissolved", "setting": "in 2-hydroxypropyl (2-isopropyl-5-methyl-cyclohexyl) carbonate, (2-isopropyl-5-methyl-cyclohexyl) 2-hydroxypropanoate or a mixture of both, based on the total weight of the composition", "value": "up to 12 % by weight"}, {"measurement": "solubility in medium-chain triglycerides", "setting": "medium-chain triglycerides as solvent, even at 60° C.", "value": "insoluble"}]}
